molecular target: T1, hTRPA1 (Homo sapiens, UniProt O75762, K186N); assay: High throughput Ca2+ fluorescence (Fluo4) assay, AITC stimulation; type: cell-based; conditions: Table 1; read-out: hTRPA1 Fluo4 IC50
T1 construct: expressed in transfected cells; host or cells: HEK293/TREx (Invitrogen), induced with tetracycline
Text: The assay depended on detection of the rise in intracellular Ca^2+ concentration ([Ca^2+]i) following channel activation in cells inducibly expressing the TRPA1 channel. Ca^2+ rise was quantified with the use of fluorescent Ca^2+ indicators that were loaded into cells and thereafter indicated the [Ca^2+]i. Ca^2+ influx followed activation of the TRPA1 channel. Compounds inhibiting the [Ca^2+]i rise were considered hits for further investigation.
These cells were maintained in the growth medium recommended by the manufacturer supplemented with 100 μg/ml hygromycin to promote retention of the TRPA1 construct. After growing to near confluency, cells were plated at a density of ˜25,000 cells/well in 384 well CellBind plates (Corning) in the presence of 1 μg/ml tetracycline, and allowed to grow for 20-30 hrs. A nearly confluent monolayer resulted. Cells were then loaded with Ca^2+ dye: Fura-2/AM or Fluo4/AM was added to the wells to a final concentration of 2 μM or 1 μM, respectively, and incubated for 80 min or 60 min, respectively, at room temperature. […] Frames were acquired at a rate of 0.2 Hz. During the assay, the plates were continuously […], with pipette mixing of wells following addition of each reagent. For the screening assay, 13 μl of a diluted stock (at 50 μM) was added to each well for 2 minutes following the collection of a short (4 frame) baseline. […] Data was collected for ˜3 minutes following addition of AITC, where the fluorescent intensity (for Fluo4) and the F340/F380 ratio (for Fura-2) were proportional to the [Ca^2+]i. Negative controls consisted of HEK293/TREx TRPA1 cells exposed to AITC, but no compound. […] These controls defined a screening window, and “hits” were defined as those compounds inhibiting the fluorescence response by at least 40%. IC50 values were determined for compounds defined as “hits.” The Fluo4 cell-based fluorescence assay was used to determine the intracellular Ca^2+ concentration in the presence of varying drug concentration. […] Compounds were tested in triplicate at all concentrations. Standard software was used to fit IC50 curves.

T1 sequence (O75762 whole entry K186N): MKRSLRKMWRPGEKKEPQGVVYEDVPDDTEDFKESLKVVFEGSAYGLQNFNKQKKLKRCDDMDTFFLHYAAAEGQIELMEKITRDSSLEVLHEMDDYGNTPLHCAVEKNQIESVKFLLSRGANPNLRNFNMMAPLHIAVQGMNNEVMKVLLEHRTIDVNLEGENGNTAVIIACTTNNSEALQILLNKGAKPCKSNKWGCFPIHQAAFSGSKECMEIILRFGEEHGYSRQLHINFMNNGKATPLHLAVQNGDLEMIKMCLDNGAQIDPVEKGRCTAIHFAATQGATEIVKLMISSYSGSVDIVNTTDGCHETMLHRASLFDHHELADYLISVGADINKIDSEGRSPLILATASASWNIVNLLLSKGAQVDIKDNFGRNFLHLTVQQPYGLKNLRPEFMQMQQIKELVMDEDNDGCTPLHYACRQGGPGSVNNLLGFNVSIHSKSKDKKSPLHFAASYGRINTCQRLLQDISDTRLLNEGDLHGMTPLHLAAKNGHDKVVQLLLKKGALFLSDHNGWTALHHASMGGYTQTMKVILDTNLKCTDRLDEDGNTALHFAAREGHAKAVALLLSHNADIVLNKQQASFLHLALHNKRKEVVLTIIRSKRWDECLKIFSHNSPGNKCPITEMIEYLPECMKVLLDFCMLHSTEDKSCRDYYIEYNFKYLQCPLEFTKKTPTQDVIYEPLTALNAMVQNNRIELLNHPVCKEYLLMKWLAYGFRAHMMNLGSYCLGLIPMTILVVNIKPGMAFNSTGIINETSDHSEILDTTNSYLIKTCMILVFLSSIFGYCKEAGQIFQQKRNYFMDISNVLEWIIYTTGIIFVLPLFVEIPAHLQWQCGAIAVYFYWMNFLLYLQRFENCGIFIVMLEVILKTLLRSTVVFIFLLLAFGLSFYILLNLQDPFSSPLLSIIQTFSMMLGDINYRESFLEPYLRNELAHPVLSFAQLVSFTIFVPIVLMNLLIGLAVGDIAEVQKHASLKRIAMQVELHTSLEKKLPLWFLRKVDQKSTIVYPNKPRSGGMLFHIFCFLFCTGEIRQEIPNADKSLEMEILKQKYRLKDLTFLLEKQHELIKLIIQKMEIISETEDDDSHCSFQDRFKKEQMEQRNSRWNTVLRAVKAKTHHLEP

Structure (SMILES)	IC50 [µM]
CC1=C(C(=O)N2CCOCC2)C(c2cccc(Br)c2)NC(=O)N1 (stereo not drawn)	> 10
CC1=C(C(=O)OC(C)C)C(c2ccc(F)c(Br)c2)NC(=O)N1 (stereo not drawn)	> 10
CCOC(=O)C1=C(C)NC(=O)NC1c1ccc(O)cc1 (stereo not drawn)	> 10
COC(=O)C1=C(C)NC(=O)NC1c1ccc2ccccc2c1 (stereo not drawn)	> 10
C=CCOC(=O)C1=C(C)NC(=O)NC1c1ccc(C(C)(C)C)cc1 (stereo not drawn)	> 10
CC1=C(C(=O)OC(C)C)C(c2ccc(Cl)cc2)NC(=S)N1 (stereo not drawn)	> 10
CCOC(=O)C1=C(C)NC(=O)NC1c1ccc(F)cc1F (stereo not drawn)	> 10
CC1=C(C(=O)OC(C)C)C(c2ccc(Cl)cc2)NC(=O)N1 (stereo not drawn)	> 10
CCN(CC)C(=O)C1=C(C)NC(=S)NC1c1ccccc1Cl (stereo not drawn)	> 10
CC1=C(C(=O)OC2CCC(C)CC2)C(c2ccc(N(C)C)cc2)NC(=O)N1 (stereo not drawn)	> 10
CCN1C(=O)NC(c2cc(C)ccc2C)C(C(=O)OC)=C1C (stereo not drawn)	> 10
C=CCOC(=O)C1=C(C)NC(=O)NC1c1ccc(N(CC)CC)cc1 (stereo not drawn)	> 10
COC(=O)C1=C(C)NC(=S)NC1c1ccc(OC(C)C)cc1 (stereo not drawn)	> 10
COC(=O)C1=C(C)N(C)C(=S)NC1c1cccc(Cl)c1Cl (stereo not drawn)	≤ 5
CCc1ccc(C2NC(=O)NC(C)=C2C(=O)OC2CCCC2)cc1 (stereo not drawn)	> 10
CCOC(=O)C1=C(c2ccccc2)NC(=S)NC1c1ccc(SC)cc1 (stereo not drawn)	≤ 5
CCN(CC)C(=O)C1=C(C)NC(=S)NC1c1ccccc1OC (stereo not drawn)	> 10
C=CCOC(=O)C1=C(C)NC(=S)NC1c1cccc(OC)c1 (stereo not drawn)	≤ 10
CCN1C(=O)NC(c2ccc(Br)cc2)C(C(=O)OC(C)C)=C1C (stereo not drawn)	≤ 5
CCOC(=O)C1=C(CN2CCc3ccccc32)NC(=O)NC1c1cc(C)ccc1C (stereo not drawn)	> 10
CC1=C(C(=O)OC(C)C)C(c2cccc(Cl)c2)NC(=O)N1 (stereo not drawn)	> 10

Structure (SMILES)	IC50 [µM]
CCCCCOC(=O)C1=C(C)NC(=O)NC1c1cccc(Br)c1 (stereo not drawn)	> 10
CCC(C)OC(=O)C1=C(C)NC(=O)NC1c1ccc(C(F)(F)F)cc1 (stereo not drawn)	≤ 10
CCN(CC)C(=O)C1=C(C)NC(=S)NC1c1ccc(OC)cc1OC (stereo not drawn)	> 10
CC1=C(C(=O)N2CCOCC2)C(c2cccc(Cl)c2)NC(=O)N1 (stereo not drawn)	> 10
CCN1C(=O)NC(c2ccccc2Br)C(C(=O)OC)=C1C (stereo not drawn)	> 10
CC1=C(C(=O)OC(C)(C)C)C(c2cccc(Br)c2)NC(=O)N1 (stereo not drawn)	> 10
CC1=C(C(=O)OC(C)C)C(c2ccc(C(C)C)cc2)NC(=O)N1 (stereo not drawn)	> 10
CC1=C(C(=O)N(C)C)C(c2c(F)cccc2Cl)NC(=S)N1 (stereo not drawn)	> 10
COc1cc2c(cc1C1NC(=S)NC(C)=C1C(=O)N(C)C)CCCC2 (stereo not drawn)	> 10
CCOC(=O)C1=C(C)N(C)C(=S)NC1c1cccc(Cl)c1Cl (stereo not drawn)	> 10
CCN(CC)C(=O)C1=C(C)NC(=S)NC1c1ccc(OC)cc1 (stereo not drawn)	> 10
CC1=C(C(=O)OCc2ccc(C)cc2)C(c2ccccc2)NC(=O)N1 (stereo not drawn)	> 10
CCOC(=O)C1=C(C)NC(=S)NC1c1ccccc1 (stereo not drawn)	> 10
CCOC(=O)C1=C(c2ccccc2)NC(=S)NC1c1cccc(OC)c1OC (stereo not drawn)	> 10
CC1=C(C(=O)OC(C)(C)C)C(c2cccc(Cl)c2)NC(=O)N1 (stereo not drawn)	> 10
CC1=C(C(=O)N2CCOCC2)C(c2ccc(F)cc2)NC(=O)N1 (stereo not drawn)	> 10
COC(=O)C1=C(C)N(C)C(=S)NC1c1ccccc1OC (stereo not drawn)	> 10
CC1=C(C(=O)OCCc2ccccc2)C(c2ccc(F)cc2)NC(=O)N1 (stereo not drawn)	> 10
CC1=C(C(=O)OCc2ccc(C)cc2)C(c2ccc(F)cc2)NC(=O)N1 (stereo not drawn)	> 10
CCN(CC)C(=O)C1=C(C)NC(=S)NC1c1cc(C)c(OC)cc1C (stereo not drawn)	> 10
COC(=O)C1=C(C)N(C)C(=O)NC1c1c(Cl)cccc1Cl (stereo not drawn)	> 10

Structure (SMILES)	IC50 [µM]
COC(=O)C1=C(C)NC(=S)NC1c1ccccc1OC(C)C (stereo not drawn)	> 10
CCCOC(=O)C1=C(C)NC(=O)NC1c1cccc(Cl)c1 (stereo not drawn)	> 10
CC1=C(C(=O)N(C)C)C(c2ccccc2F)NC(=S)N1 (stereo not drawn)	> 10
COC(=O)C1=C(C)NC(=O)NC1c1ccc(F)c(Br)c1 (stereo not drawn)	> 10
COC(=O)C1=C(C)N(C)C(=S)NC1c1cccc(OC)c1 (stereo not drawn)	≥ 20
CC1=C(C(=O)OC2CCCCC2)C(c2ccc(F)cc2)NC(=O)N1 (stereo not drawn)	> 10
CC1=C(C(=O)OCC(Cl)(Cl)Cl)C(c2ccccc2)NC(=O)N1 (stereo not drawn)	> 10
CSc1ccc(C2NC(=O)NC(C)=C2C(=O)OCc2ccccc2)cc1 (stereo not drawn)	> 10
COCCOC(=O)C1=C(C)NC(=S)NC1c1ccc(C(C)C)cc1 (stereo not drawn)	> 10
COCCOC(=O)C1=C(C)NC(=S)NC1c1ccc(Br)cc1 (stereo not drawn)	> 10
COC(=O)C1=C(C)NC(=S)NC1c1ccccc1C (stereo not drawn)	≥ 30
CCOC(=O)C1=C(c2ccccc2)NC(=O)NC1c1ccccc1Cl (stereo not drawn)	> 10
CCOC(=O)C1=C(C)N(CC)C(=O)NC1c1ccccc1Cl (stereo not drawn)	≥ 20
CCOC(=O)C1=C(CN2CCN(C)CC2)NC(=O)NC1c1ccc(Cl)cc1 (stereo not drawn)	> 10
COC(=O)C1=C(C)N(C)C(=S)NC1c1ccc(OC)cc1 (stereo not drawn)	≥ 30
CC1=C(C(=O)OC(C)C)C(c2ccccc2Cl)NC(=S)N1 (stereo not drawn)	≤ 10
CC1=C(C(=O)N2CCOCC2)C(c2cccc(F)c2)NC(=O)N1 (stereo not drawn)	≤ 5
CCCC1=C(C(=O)OCC)C(c2ccc(C(F)(F)F)cc2)NC(=O)N1C (stereo not drawn)	> 10
COCCOC(=O)C1=C(C)NC(=S)NC1c1ccc(F)cc1 (stereo not drawn)	≤ 5

same assay, conditions: Table 2; read-out: hTRPA1 Fluor IC50

Structure (SMILES)	IC50 [µM]
COc1ccc(C)cc1NC(=O)Cn1cnc2c1c(=O)n(C)c(=O)n2C [Compound 373]	> 10
CC(C(=O)N(C)c1ccccc1)n1cnc2c1c(=O)n(C)c(=O)n2C (stereo not drawn) [Compound 301]	> 10
CCOC(=O)c1ccccc1NC(=O)Cn1cnc2c1c(=O)n(C)c(=O)n2C [Compound 362]	> 10
Cc1cc(C)c(-c2csc(NC(=O)Cn3cnc4c3c(=O)n(C)c(=O)n4C)n2)c(C)c1 [Compound 272]	> 10
CC(=O)c1cccc(NC(=O)Cn2cnc3c2c(=O)n(C)c(=O)n3C)c1 [Compound 380]	> 10
CN(Cc1ccccc1N1CCOCC1)C(=O)Cn1cnc2c1c(=O)n(C)c(=O)n2C [Compound 342]	> 10
Cn1c(=O)c2c(ncn2CC(=O)N(Cc2ccccc2)CC(F)(F)F)n(C)c1=O [Compound 288]	> 10
Cn1c(=O)c2c(ncn2CC(=O)Nc2ccc(N3CCOCC3)cc2)n(C)c1=O [Compound 247]	≤ 5
Cc1cc(C)c(NC(=O)Cn2cnc3c2c(=O)n(C)c(=O)n3C)c(Cl)c1 [Compound 330]	> 10
Cn1c(=O)c2c(ncn2CC(=O)Nc2ccc3c(c2)OCCO3)n(C)c1=O [Compound 246]	> 10
CN(CCOc1ccccc1)C(=O)Cn1cnc2c1c(=O)n(C)c(=O)n2C [Compound 324]	≥ 20
CCCC(C)NC(=O)Cn1cnc2c1c(=O)n(C)c(=O)n2C (stereo not drawn) [Compound 376]	> 10
Cn1c(=O)c2c(ncn2CC(=O)NCCc2ccccn2)n(C)c1=O [Compound 241]	> 10
COC(=O)c1cccc(NC(=O)Cn2cnc3c2c(=O)n(C)c(=O)n3C)c1 [Compound 290]	≤ 10
Cn1c(=O)c2c(ncn2CC(=O)Nc2cc(F)cc(F)c2)n(C)c1=O [Compound 386]	≤ 5
Cn1c(=O)c2c(ncn2CC(=O)Nc2ccccc2C(=O)NC2CC2)n(C)c1=O [Compound 338]	> 10
Cc1cc(NC(=O)Cn2cnc3c2c(=O)n(C)c(=O)n3C)n(-c2ccccc2)n1 [Compound 255]	≥ 20
Cn1c(=O)c2c(ncn2CC(=O)Nc2ccc(N3CCCCCC3)cc2)n(C)c1=O [Compound 354]	≤ 5
COc1ccc(NC(=O)Cn2cnc3c2c(=O)n(C)c(=O)n3C)cc1Cl [Compound 280]	≤ 10
CC(=O)c1ccccc1NC(=O)Cn1cnc2c1c(=O)n(C)c(=O)n2C [Compound 309]	> 10
Cc1nn(Cc2ccccc2)c(C)c1CNC(=O)Cn1cnc2c1c(=O)n(C)c(=O)n2C [Compound 339]	> 10
Cc1ccc(Cl)cc1NC(=O)Cn1cnc2c1c(=O)n(C)c(=O)n2C [Compound 374]	≥ 20
Cn1c(=O)c2c(ncn2CC(=O)NC(CN2CCOCC2)c2ccccc2)n(C)c1=O (stereo not drawn) [Compound 357]	> 10
Cn1c(=O)c2c(ncn2CC(=O)Nc2ccccc2Cl)n(C)c1=O [Compound 221]	> 10
CN(CCCNC(=O)Cn1cnc2c1c(=O)n(C)c(=O)n2C)c1ccccc1 [Compound 322]	> 10
Cc1ccccc1NC(=O)Cn1cnc2c1c(=O)n(C)c(=O)n2C [Compound 358]	> 10
Cn1c(=O)c2c(ncn2CC(=O)NC(c2ccc(F)cc2)c2cccs2)n(C)c1=O (stereo not drawn) [Compound 343]	> 10
Cn1c(=O)c2c(ncn2CC(=O)Nc2ccccc2Sc2ccccc2)n(C)c1=O [Compound 384]	≤ 10
Cn1c(=O)c2c(ncn2CC(=O)Nc2ccc3c(c2)OCCCO3)n(C)c1=O [Compound 326]	≤ 10

From patent publication US7671061B2, “Methods and compositions for treating pain” (Hydra Biosciences, Inc., priority 2005, dated 2010)
